Source: PubChem BioAssay AID1919002 (Molecular Pharmacology Branch, DTP, NCI, 2023)
Several values for one entry are separate records, joined by “and”; a condition that tells them apart may be missing. Identical values can stand only once.

System: 743489-274-T-PDC complex spheroid growth
Assay: Anticancer human tumor 743489-274-T-PDC patient-derived renal cell carcinoma cell line growth inhibition [AhR]
Conditions: for viability, T/C: stronger effect = lower value
From the text: Multicellular complex tumor spheroid response to aryl hydrocarbon receptor antagonists in combination with a variety of drugs and investigational agents in selected tumor cell lines
The current study was undertaken to assess response to aryl hydrocarbon receptor antagonists in combination with standard-of-care drugs and investigational agents in solid tumor complex spheroid models. Complex spheroids include a stromal component modeled by human endothelial cells (HUVEC) and fibroblasts modeled by human mesenchymal stem cells (MSCs). The concentration ranges selected for each drug and investigational agent were based upon clinically achievable concentrations if the clinical Cmax of the agent was known.
Compounds. The drugs and investigational agents: BAY 2416964 (NSC825713), GNF351 (NSC835774), CH-223191 (NSC835775), CPI-455 (NSC825282), aza-TdCyd (NSC777586), decitabine (NSC127716), belinostat (NSC758774), entinostat (NSC756642), pevonedistat (NSC761192), tazemetostat (NSC777109), talazoparib (NSC765396), olaparib (NSC753686), selinexor (NSC780203), nedisertib (M3814, NSC802822), bortezomib (NSC756655), venetoclax (NSC766270), doxorubicin (NSC123127), elimusertib (BAY189344, NSC800525), ceralasertib (AZD6738, NSC777638), TAK-243 (NSC785004), alisertib (NSC759677), etoposide (NSC141540), topotecan (NSC609699), eribulin (NSC707389), gemcitabine (NSC613327), carboplatin (NSC241240), cisplatin (NSC119875), and SN-38 (NSC673596) were obtained from the National Cancer Institute (NCI) Developmental Therapeutics Program Chemical Repository (32). The FDA-approved anticancer drug set is available from the Developmental Therapeutics Program at https://dtp.cancer.gov/organization/dscb/obtaining/available plates.htm. […] The stock solutions were prepared in dimethyl sulfoxide (DMSO, Sigma-Aldrich, St. Louis, MO, cat. D2650), except for the platinum compounds which were prepared in saline (Quality Biological, Gaithersburg, MD, cat. 114-055-101), at 800-fold the tested concentration and stored at -70 degrees C prior to their use. All drugs and investigational agents were tested over a range starting from a high concentration at or near the clinical Cmax and decreasing in half-log increments. If the clinical Cmax for an agent had not been determined, the highest concentration tested was 10 microM (Table 1).
Cell Culture. All cells were maintained in an incubator at 37 degrees C and 5% CO2 with 95% humidity. The PDC lines were cultured according to standard operating procedures established by the NCI PDMR (https://pdmr.cancer.gov). Briefly, all PDCs were thawed and cultured in Matrigel-coated flasks prepared with a working solution of 1X Ham's F-12 nutrient mix, without supplementation (Invitrogen, Waltham, MA, cat. 11765054), 100 U/mL penicillin-streptomycin (Invitrogen, cat. 15140122), and 2.5% Matrigel (Corning Inc., Corning, NY, cat. 354248) for the first three passages. All PDCs were cultured in complete DMEM/F-12 media containing advanced DMEM/F-12 (Invitrogen, cat. 12634028), 4.9% defined fetal bovine serum, heat inactivated (HyClone Laboratories Inc., Logan, UT, cat. SH30070.03HI), 389 ng/mL hydrocortisone (Sigma-Aldrich, cat. H4001), 9.7 ng/mL human EGF recombinant protein (Invitrogen, cat. PHG0313), 23.4 microg/mL adenine (Sigma-Aldrich, cat. A2786), 97.3 U/mL penicillin-streptomycin (Invitrogen, cat. 15140122), 1.9 mM L-glutamine (Invitrogen, cat. 25030081), and 9.7 microM Y-27632 dihydrochloride (Tocris Bioscience, Bristol, United Kingdom, cat. 1254). The PDCs were cultured in complete DMEM/F12 media without 10 microM Y-27632 dihydrochloride for at least two passages prior to the screen. The established cell lines NCI-H1341 and […] were cultured in DMEM/F-12, HEPES (Invitrogen, cat. 11330032), 5% defined fetal bovine serum (HyClone Laboratories Inc., cat. SH30070.03), ITS premix universal culture supplement [insulin (5 microg/mL), transferrin (5 microg/mL), and selenious acid (5 ng/mL)] […]
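Also: spheroids exposed to agents for 7 days before readout.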
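For viability, T/C in this document: 100% = DMSO vehicle control wells.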

In the case of `COc1cccc2c1C(=O)c1c(O)c3c(c(O)c1C2=O)CC(O)(C(=O)CO)CC3OC1CC(N)C(O)C(C)O1` (configuration not stated), the viability, T/C (compound 0.0316 µM) is reported as 100% and 108% and 103%, the viability, T/C (compound 0.1 µM) is reported as 102% and 110% and 125% and the viability, T/C (compound 0.316 µM) is reported as 101% and 112% and 108%. The viability, T/C (compound 1 µM) was 107% and 105% and 103%, the viability, T/C (compound 3.16 µM) was 88% and 77.8% and 89.9% and the viability, T/C (compound 10 µM) was 65.5% and 21.7% and 22.8%. The IC50 (curve of compound) was > 10 µM and 5.59 µM and 6.23 µM.

`Cc1ccccc1N=Nc1ccc(NC(=O)c2ccnn2C)c(C)c1` was tested, and the viability, T/C (compound 0.1 µM) was 90.5% [middle of 20 runs], the viability, T/C (compound 0.316 µM) was 90.9% [middle of 20 runs] and the viability, T/C (compound 1 µM) was 86.1% [middle of 20 runs]. The IC50 (compound alone, run of 08/22/2022) was greater than 10 µM.

In the case of `Cc1cncc(-c2nc(NCCc3c[nH]c4ccccc34)c3ncn(C(C)C)c3n2)c1`, the viability, T/C (compound 0.1 µM) is reported as 95.2% [middle of 20 runs], the viability, T/C (compound 0.316 µM) is reported as 94.5% [middle of 20 runs] and the IC50 (compound alone, run of 08/16/2022) is reported as greater than 10 µM.

With `Cn1ncnc1C1c2n[nH]c(=O)c3cc(F)cc(c23)NC1c1ccc(F)cc1` (configuration not stated) the viability, T/C (compound 0.000316 µM) was 100% and 101% and 102%, the viability, T/C (compound 0.001 µM) was 105% and 111% and 108% and the viability, T/C (compound 0.00316 µM) was 95.8% and 107% and 98.2%. For the same molecule, the viability, T/C (compound 0.01 µM) was 91.2% and 103% and 108%, the viability, T/C (compound 0.0316 µM) was 97.2% and 95.4% and 95.6% and the viability, T/C (compound 0.1 µM) was 103% and 94% and 99.3%. For the same molecule, the IC50 (curve of compound) was greater than 0.1 µM.

With `NS(=O)(=O)OCC1CC(n2ccc3c(NC4CCc5ccccc54)ncnc32)CC1O` (configuration not stated) the viability, T/C (compound 0.0316 µM) was 102% and 104% and 93.9%, the viability, T/C (compound 0.1 µM) was 105% and 121% and 96.2% and the viability, T/C (compound 0.316 µM) was 114% and 108% and 103%. For the same molecule, the viability, T/C (compound 1 µM) was 132% and 136% and 138%, the viability, T/C (compound 3.16 µM) was 137% and 132% and 156% and the viability, T/C (compound 10 µM) was 150% and 128% and 161%. The IC50 (curve of compound) was greater than 10 µM.

With `Nc1ccccc1NC(=O)c1ccc(CNC(=O)OCc2cccnc2)cc1` the viability, T/C (compound 0.0316 µM) was 95% and 98.2% (2×), the viability, T/C (compound 0.1 µM) was 91.3% and 103% (2×) and the viability, T/C (compound 0.316 µM) was 82.6% and 96.2% and 85.1%. The viability, T/C (compound 1 µM) was 75.5% and 87.3% and 72.5%, the viability, T/C (compound 3.16 µM) was 57.6% and 59% and 59.5% and the viability, T/C (compound 10 µM) was 45.6% and 37.9% and 39.1%. For the same molecule, the IC50 (curve of compound) was 6.73 µM and 5.17 µM and 5.09 µM.

For `Nc1ccn(C2OC(CO)C(O)C2(F)F)c(=O)n1` (configuration not stated), the viability, T/C (compound 0.0316 µM) was 92.4% and 67.2% and 87.8%, the viability, T/C (compound 0.1 µM) was 73.3% and 58.7% and 72.8% and the viability, T/C (compound 0.316 µM) was 69.8% and 60.6% and 73.5%. For the same molecule, the viability, T/C (compound 1 µM) was 63% and 53.5% and 70.8%, the viability, T/C (compound 3.16 µM) was 71.4% and 61.4% and 66.6% and the viability, T/C (compound 10 µM) was 73.7% and 62.2% and 66.3%. The IC50 (curve of compound) was greater than 10 µM.

For `Nc1ncn(C2CC(O)C(CO)O2)c(=O)n1` (configuration not stated), the viability, T/C (compound 0.00316 µM) was 94.8% and 98.8% and 101%, the viability, T/C (compound 0.01 µM) was 112% and 106% (2×) and the viability, T/C (compound 0.0316 µM) was 102% and 106% and 105%. For the same molecule, the viability, T/C (compound 0.1 µM) was 90.8% and 93.7% and 102%, the viability, T/C (compound 0.316 µM) was 100% and 96.7% and 104% and the viability, T/C (compound 1 µM) was 94% and 93.5% (2×). It also gave an IC50 (curve of compound) greater than 1 µM.

For `Nc1ncn(C2CC(O)C(CO)S2)c(=O)n1` (configuration not stated), the viability, T/C (compound 0.000949 µM) was 110% and 93.5% and 116%, the viability, T/C (compound 0.003 µM) was 104% and 98.1% and 105% and the viability, T/C (compound 0.00949 µM) was 96.2% and 94.2% and 111%. For the same molecule, the viability, T/C (compound 0.03 µM) was 102% and 85.6% and 96.6%, the viability, T/C (compound 0.0949 µM) was 97.2% and 95% and 103% and the viability, T/C (compound 0.3 µM) was 97.2% and 89.2% and 103%. For the same molecule, the IC50 (curve of compound) was greater than 0.3 µM.

With `O=C(C=Cc1cccc(S(=O)(=O)Nc2ccccc2)c1)NO` the viability, T/C (compound 0.0316 µM) was 101% and 91.6% and 104%, the viability, T/C (compound 0.1 µM) was 95.5% and 88.6% and 91.7% and the viability, T/C (compound 0.316 µM) was 93.9% and 90.1% and 87.8%. For the same molecule, the viability, T/C (compound 1 µM) was 84.5% and 64.3% and 93%, the viability, T/C (compound 3.16 µM) was 83.8% and 59.3% and 84.6% and the viability, T/C (compound 10 µM) was 59.8% and 39.6% and 51.1%. For the same molecule, the IC50 (curve of compound) was > 10 µM and 4.74 µM.

With `O=C(C=Cn1cnc(-c2cc(C(F)(F)F)cc(C(F)(F)F)c2)n1)NNc1cnccn1` the viability, T/C (compound 0.00949 µM) was 102% and 119% and 97.2%, the viability, T/C (compound 0.03 µM) was 104% and 110% (2×) and the viability, T/C (compound 0.0949 µM) was 105% and 119% and 115%. The viability, T/C (compound 0.3 µM) was 115% and 107% and 129%, the viability, T/C (compound 0.949 µM) was 114% and 113% and 116% and the viability, T/C (compound 3 µM) was 93.8% and 94.4% and 92.8%. The IC50 (curve of compound) was greater than 3 µM.

With `O=C(c1cc(Cc2n[nH]c(=O)c3ccccc23)ccc1F)N1CCN(C(=O)C2CC2)CC1` the viability, T/C (compound 0.0316 µM) was 95.7% and 110% and 102%, the viability, T/C (compound 0.1 µM) was 101% and 105% and 113% and the viability, T/C (compound 0.316 µM) was 103% (2×) and 97.1%. The viability, T/C (compound 1 µM) was 92.9% and 102% and 112%, the viability, T/C (compound 3.16 µM) was 102% and 101% and 109% and the viability, T/C (compound 10 µM) was 96.3% and 110% and 106%. For the same molecule, the IC50 (curve of compound) was greater than 10 µM.
